Measurements as given in patent US11713335B2, “Aminocoumarin compounds and methods of their use” (President and Fellows of Harvard College, priority 2018, dated 2023).
≈ marks a conversion by molar mass, not a printed value. Where two headings read alike, the source gives them in different places.

Assays:
E. coli 25922 = assay: Minimal inhibitory concentration, E. coli 25922; format: cell-based; settings: 16 hour minimal inhibitory concentration at 37° C., read-out: MIC (μM) E. coli 25922
Summary of the method: (§1)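 Growth at 600 nm after 16 h at 37 °C without shaking defines the MIC, taken as the lowest compound concentration that prevents growth and expressed in µM. Cultures grown to saturation in LB, or TSA for S. aureus, were diluted 1:100 twice before twofold serial compound dilution.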

WT E. coli = assay: Minimal inhibitory concentration in wild-type E. coli; format: cell-based, Escherichia coli; settings: wild-type E. coli, 37° C., 16 hours, read-out: MIC (μM) in WT E. coli
Protocol: General Procedure for Determination of Minimal Inhibitory Concentrations
Overnight cultures (5 mL) of bacterial strains were grown in LB media or TSA media (for S. aureus) at 37° C. and with shaking at 220 rpm until saturation. The overnight culture was diluted serially 1:100 (50 μL in 5 mL sterile media) and then 1:100 (250 μL in 25 mL sterile media). The 25 mL of diluted culture was then dispensed to a sterile 96 well plate (Corning #3370). 198 μL of culture were dispensed into row A and 100 μL of this culture were dispensed into rows B-H. Aminocoumarin compound (DMSO stock) were added to the first row and then the row was mixed by pipetting. 100 μL of culture from row A were transferred to row B and the serial dilution continued until the final 100 μL from row H were discarded. The plate was incubated without shaking in a 37° C. for 16 hours and then read by visible light spectrophotometer (Molecular Devices) at 600 nm. The minimal inhibitory concentration (MIC) was determined as the lowest concentration of compound concentration that inhibited the growth of bacteria.

K. pneumoniae 700721 = assay: Minimal inhibitory concentration, K. pneumoniae 700721; format: cell-based; settings: 16 hour minimal inhibitory concentration at 37° C., read-out: MIC (μM) K. pneumoniae 700721
Summary of the method: as §1

E. coli MC4100 = assay: Minimal inhibitory concentration, E. coli MC4100; format: cell-based; settings: 16 hour minimal inhibitory concentration at 37° C., read-out: MIC (μM) E. coli MC4100 ara+
Summary of the method: as §1

E. cloacae 13047 = assay: Minimal inhibitory concentration, E. cloacae 13047; format: cell-based; settings: 16 hour minimal inhibitory concentration at 37° C., read-out: MIC (μM) E. cloacae 13047
Summary of the method: as §1

S. aureus MW2 = assay: Minimal inhibitory concentration, S. aureus MW2; format: cell-based; settings: 16 hour minimal inhibitory concentration at 37° C., read-out: MIC (μM) S. aureus MW2 (MRSA)
Summary of the method: as §1

A. baumannii 19606 = assay: Minimal inhibitory concentration, A. baumannii 19606; format: cell-based; settings: 16 hour minimal inhibitory concentration at 37° C., read-out: MIC (μM) A. baumannii 19606
Summary of the method: as §1

S. aureus RN4220 = assay: Minimal inhibitory concentration, S. aureus RN4220; format: cell-based; settings: 16 hour minimal inhibitory concentration at 37° C., read-out: MIC (μM) S. aureus RN4220
Summary of the method: as §1

[1] = Staphylococcus aureus, MRSA, 16 h
[2] = Acinetobacter baumannii, 19606, 16 h
[3] = Staphylococcus aureus, RN4220, 16 h

SMILES	MIC (E. coli 25922; Escherichia coli, 25922, 16 h)	MIC (WT E. coli; Escherichia coli)	MIC (K. pneumoniae 700721; Klebsiella pneumoniae, 700721)	MIC (E. coli MC4100; Escherichia coli, MC4100, 16 h)	MIC (E. cloacae 13047; Enterobacter cloacae, 13047)	MIC (S. aureus MW2; [1])	MIC (A. baumannii 19606; [2])	MIC (S. aureus RN4220; [3])	MIC (E. coli 25922)	MIC (E. coli MC4100)	MIC (S. aureus MW2)	MIC (A. baumannii 19606)	MIC (S. aureus RN4220)	MIC (WT E. coli)	MIC (K. pneumoniae 700721)	MIC (E. cloacae 13047)
CO[C@@H]1[C@@H](OC(N)=O)[C@@H](O)[C@H](Oc2ccc3c(O)c(NC(=O)c4cccc(-c5ccccc5C)c4)c(=O)oc3c2C)OC1(C)C [Compound 47]	40 µM (≈ 24.7 µg/mL)	26 µM (≈ 16.1 µg/mL)	> 100 µM	26 µM (≈ 16.1 µg/mL)	> 100 µM	10 µM (≈ 6.19 µg/mL)	> 50 µM	20 µM (≈ 12.4 µg/mL)								
COc1cc(C(=O)Nc2c(O)c3ccc(O[C@@H]4OC(C)(C)[C@H](OC)[C@@H](OC(N)=O)[C@H]4O)c(C)c3oc2=O)cc(OC)c1OC [Compound 11]	> 200 µM	> 300 µM	> 100 µM	> 200 µM	> 100 µM	> 100 µM	> 50 µM	> 100 µM								
COc1cccc(-c2cccc(C(=O)Nc3c(O)c4ccc(O[C@@H]5OC(C)(C)[C@H](OC)[C@@H](OC(N)=O)[C@H]5O)c(C)c4oc3=O)c2)c1 [Compound 45]		89 µM (≈ 56.5 µg/mL)	> 100 µM		> 100 µM				79 µM (≈ 50.1 µg/mL)	89 µM (≈ 56.5 µg/mL)	3 µM (≈ 1.9 µg/mL)	>50 µM	5 µM (≈ 3.17 µg/mL)			
CO[C@@H]1[C@@H](OC(N)=O)[C@@H](O)[C@H](Oc2ccc3c(O)c(NC(=O)c4ccc5c(ccn5C)c4)c(=O)oc3c2C)OC1(C)C.Cl [Compound 73]									>200 µM	>200 µM	81 µM	>50 µM	>100 µM	>300 µM	>100 µM	>100 µM
CO[C@@H]1[C@@H](OC(N)=O)[C@@H](O)[C@H](Oc2ccc3c(O)c(NC(=O)c4cc(-c5ccc6ccccc6c5)cc(O)c4O)c(=O)oc3c2C)OC1(C)C [Compound 98]									>200 µM	>200 µM	18 µM (≈ 12.4 µg/mL)	36 µM (≈ 24.7 µg/mL)	18 µM (≈ 12.4 µg/mL)	>300 µM	>100 µM	>100 µM
CO[C@@H]1[C@@H](OC(N)=O)[C@@H](O)[C@H](Oc2ccc3c(O)c(NC(=O)c4ccc(O)c(-c5cccc6ccccc56)c4)c(=O)oc3c2C)OC1(C)C [Compound 93]									>200 µM	75 µM (≈ 50.3 µg/mL)	19 µM (≈ 12.7 µg/mL)	>50 µM	37 µM (≈ 24.8 µg/mL)	75 µM (≈ 50.3 µg/mL)	>100 µM	>100 µM
CO[C@@H]1[C@@H](OC(N)=O)[C@@H](O)[C@H](Oc2ccc3c(O)c(NC(=O)c4ccccc4)c(=O)oc3c2C)OC1(C)C [Compound 8]									>200 µM	>200 µM	>100 µM	>50 µM	>100 µM	>300 µM	>100 µM	>100 µM
CO[C@@H]1[C@@H](OC(N)=O)[C@@H](O)[C@H](Oc2ccc3c(O)c(NC(=O)c4cc(-c5ccccc5)c(OCc5ccccc5)cc4OCc4ccccc4)c(=O)oc3c2C)OC1(C)C [Compound 66]									>200 µM	>200 µM	>100 µM	>50 µM	>100 µM	>300 µM	>100 µM	>100 µM
CO[C@@H]1[C@@H](OC(N)=O)[C@@H](O)[C@H](Oc2ccc3c(O)c(NC(=O)C4CC4)c(=O)oc3c2C)OC1(C)C [Compound 13]	> 200 µM	> 300 µM	> 100 µM	> 200 µM	> 100 µM	> 100 µM	> 50 µM	> 100 µM								
CO[C@@H]1[C@@H](OC(N)=O)[C@@H](O)[C@H](Oc2ccc3c(O)c(NC(=O)c4cccc(-c5ccc(OC(F)(F)F)cc5)c4)c(=O)oc3c2C)OC1(C)C [Compound 57]									>200 µM	>200 µM	0.91 µM (≈ 0.627 µg/mL)	18 µM (≈ 12.4 µg/mL)	1.45 µM (≈ 0.998 µg/mL)	>300 µM	>100 µM	>100 µM
COc1ccc(C(=O)Nc2c(O)c3ccc(O[C@@H]4OC(C)(C)[C@H](OC)[C@@H](OC(N)=O)[C@H]4O)c(C)c3oc2=O)cc1OC [Compound 9]	> 200 µM	> 300 µM	> 100 µM	> 200 µM	> 100 µM	43 µM (≈ 25.3 µg/mL)	> 50 µM	85 µM (≈ 50 µg/mL)								
CO[C@@H]1[C@@H](OC(N)=O)[C@@H](O)[C@H](Oc2ccc3c(O)c(NC(=O)c4cc(O)c(O)c(-c5ccc6ccccc6c5)c4)c(=O)oc3c2C)OC1(C)C [Compound 96]									146 µM (≈ 100 µg/mL)	>200 µM	9 µM (≈ 6.18 µg/mL)	18 µM (≈ 12.4 µg/mL)	9 µM (≈ 6.18 µg/mL)	>300 µM	76 µM (≈ 52.2 µg/mL)	>100 µM
CO[C@@H]1[C@@H](OC(N)=O)[C@@H](O)[C@H](Oc2ccc3c(O)c(NC(=O)c4ccc5ccccc5c4)c(=O)oc3c2C)OC1(C)C [Compound 4]	> 200 µM	> 300 µM	> 100 µM	> 200 µM	> 100 µM	22 µM (≈ 12.7 µg/mL)	> 50 µM	22 µM (≈ 12.7 µg/mL)								
CO[C@@H]1[C@@H](OC(N)=O)[C@@H](O)[C@H](Oc2ccc3c(O)c(NC(=O)c4cccc(-c5cccc(C)c5)c4)c(=O)oc3c2C)OC1(C)C [Compound 51]	81 µM (≈ 50.1 µg/mL)	26 µM (≈ 16.1 µg/mL)	> 100 µM	26 µM (≈ 16.1 µg/mL)	> 100 µM	1 µM (≈ 0.619 µg/mL)	40 µM (≈ 24.7 µg/mL)	1.62 µM (≈ 1 µg/mL)								
CO[C@@H]1[C@@H](OC(N)=O)[C@@H](O)[C@H](Oc2ccc3c(O)c(NC(=O)c4ccc(O)c(CCC(N)=O)c4)c(=O)oc3c2C)OC1(C)C [Compound 91]									>200 µM	>200 µM	>100 µM	>50 µM	>100 µM	>300 µM	>100 µM	>100 µM
